≈ marks a conversion by molar mass, not a printed value. Positions of bridges follow the written chain, without caps; N, C: chain ends. Non-standard residues stand in square brackets, D forms with d. Residues, ends and D or L forms follow the SMILES beside them. Lys(N3) = [N-]=[N+]=NCCCC[C@H](N)C(=O)O; R8 = C=CCCCCCC[C@@](C)(N)C(=O)O; Cba = N[C@@H](CC1CCC1)C(=O)O; S5 = C=CCCC[C@](C)(N)C(=O)O; βAla = NCCC(=O)O; Sar = CNCC(=O)O
Tests used:
[1] = Solubility assay (kinetic solubility, PBS pH 7); type: physicochemical; conditions: pH 7, PBS; for solubility kinetic: pH 7, aqueous buffer, kinetic from dmso stock, read-out: Solubility
Procedure, shortened: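 Quantitation uses an external standard at 100 µM, prepared from 10 mM stock in acetonitrile:methanol:DMSO (10:80:10). Solubility (µM) = (peak area of sample ÷ peak area of standard) × standard concentration.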

HCT116 cells = experiment: Lactate dehydrogenase (LDH) release assay; type: cell-based
Procedure, shortened: (§1)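 Read-out was lactate dehydrogenase release, reflecting loss of membrane integrity, in reporter-engineered HCT116 cells (p53-responsive β-lactamase) seeded at 8000 cells per well. Final DMSO was 0.5%, and reported values are geometric means from three or more biological repeats.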

[2] = Lactate dehydrogenase (LDH) release assay; type: cell-based; conditions: LDH: Cytotoxicity assay: EC50
Procedure, shortened: as §1

EPSA = type: physicochemical
[3] = Experimental LogD (partition coefficient); conditions: for logD: not stated, Partition Coeff LogD
[4] = test system: CellSensor p53RE-bla HCT-116 Cell Line; conditions: 72 h
Procedure, shortened: (§2)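 Compound dilution series (10 points, 3-fold, 10 mM top stock in DMSO) tested on overnight-plated Ca Ski cells in RPMI1640/10% FBS and on blasticidin-selected p53RE-bla HCT-116 cells in McCoy's 5A; read-out was CellTiter-Glo 2.0 luminescence after room-temperature equilibration.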

Ca Ski cell line = conditions: 72 h
Procedure, shortened: as §2

in vitro = conditions: Nanoclick permeability assay EC50
Procedure, shortened: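 Azido-peptide permeability was read as loss of NanoBRET signal (donor 450 nm, acceptor 610 nm) after adding NanoBret618-azide at 10 μM final.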

Structure (SMILES)	solubility kinetic [1]	LDH: Cytotoxicity assay: % Effect (HCT116 cells)	EC50 [2]	EPSA (EPSA; EPSA)	logD [3]	EC50 [4]	EC50 (Ca Ski cell line)	EPSA (physchem)	cell entry EC50 (in vitro)	EPSA (EPSA)	Solubility [1]	Partition Coeff LogD [3]
CC(=O)N[C@@H](CCCNC(=N)N)C(=O)N[C@@H](CCCNC(=N)N)C(=O)NCCC(=O)N[C@@H](CC(C)C)C(=O)N[C@H](C(=O)N[C@@H](Cc1ccccc1)C(=O)N[C@]1(C)CCCCCCC=CCCC[C@@](C)(C(=O)N[C@@H](CO)C(=O)N[C@@H](C)C(=O)N[C@@H](C)C(N)=O)NC(=O)[C@H](CC2CCC2)NC(=O)[C@H](CCC(N)=O)NC(=O)[C@H](C)NC(=O)[C@H](Cc2c[nH]c3ccccc23)NC(=O)[C@H](Cc2ccc(O)cc2)NC(=O)[C@H](CCC(=O)O)NC1=O)[C@@H](C)O [MP-4002]	11 µM (≈ 23.4 µg/mL)	50.55%	37.7 µM	212 A^2	2.47	–	–	–	–	–	–	–
CC(=O)N[C@H](C)C(=O)N[C@H](C)C(=O)N[C@H](C)C(=O)N[C@H](C)C(=O)N[C@H](C)C(=O)N[C@H](C)C(=O)N[C@H](C)C(=O)N[C@H](C)C(=O)N[C@@H](CC(C)C)C(=O)N[C@H](C(=O)N[C@@H](Cc1ccccc1)C(=O)N[C@]1(C)CCCCCCC=CCCC[C@@](C)(C(=O)N[C@@H](CO)C(=O)N[C@@H](C)C(=O)N[C@@H](C)C(N)=O)NC(=O)[C@H](CC2CCC2)NC(=O)[C@H](CCC(N)=O)NC(=O)[C@H](C)NC(=O)[C@H](Cc2c[nH]c3ccccc23)NC(=O)[C@H](Cc2ccc(O)cc2)NC(=O)[C@H](CCC(=O)O)NC1=O)[C@@H](C)O [MP-414] (Ac-[dA][dA][dA][dA][dA][dA][dA][dA]LTF[R8]EYWAQ[Cba][S5]SAA-NH2; staple 12-19)	35 µM (≈ 81 µg/mL)	-4.321%	> 50.7 µM	210 A^2	2.65	–	–	–	–	–	–	–
CC(=O)N(C)CC(=O)N(C)CC(=O)N(C)CC(=O)N(C)CC(=O)N(C)CC(=O)N(C)CC(=O)N(C)CC(=O)N(C)CC(=O)N[C@@H](CC(C)C)C(=O)N[C@H](C(=O)N[C@@H](Cc1ccccc1)C(=O)N[C@]1(C)CCCCCCC=CCCC[C@@](C)(C(=O)N[C@@H](CO)C(=O)N[C@@H](C)C(=O)N[C@@H](C)C(N)=O)NC(=O)[C@H](CC2CCC2)NC(=O)[C@H](CCC(N)=O)NC(=O)[C@H](C)NC(=O)[C@H](Cc2c[nH]c3ccccc23)NC(=O)[C@H](Cc2ccc(O)cc2)NC(=O)[C@H](CCC(=O)O)NC1=O)[C@@H](C)O [MP-623] (Ac-[Sar][Sar][Sar][Sar][Sar][Sar][Sar][Sar]LTF[R8]EYWAQ[Cba][S5]SAA-NH2; staple 12-19)	150 µM (≈ 347 µg/mL)	3.314%	> 50.7 µM	200 A^2	2.41	–	–	–	–	–	–	–
CC(=O)N[C@@H](CCCNC(=N)N)C(=O)N[C@@H](CCCNC(=N)N)C(=O)NCCC(=O)N[C@@H](CCCCN=[N+]=[N-])C(=O)N[C@@H](CC(C)C)C(=O)N[C@H](C(=O)N[C@@H](Cc1ccccc1)C(=O)N[C@]1(C)CCCCCCC=CCCC[C@@](C)(C(=O)N[C@@H](CO)C(=O)N[C@@H](C)C(=O)N[C@@H](C)C(N)=O)NC(=O)[C@H](CC2CCC2)NC(=O)[C@H](CCC(N)=O)NC(=O)[C@H](C)NC(=O)[C@H](Cc2c[nH]c3ccccc23)NC(=O)[C@H](Cc2ccc(O)cc2)NC(=O)[C@H](CCC(=O)O)NC1=O)[C@@H](C)O [MP-006]	2 µM (≈ 4.57 µg/mL)	47.04%	26.2 µM	226 A^2	2.72	–	–	–	–	–	–	–
CC(=O)N[C@@H](CCCCN=[N+]=[N-])C(=O)NCCC(=O)N[C@@H](CCC(=O)O)C(=O)N[C@H](C(=O)N[C@@H](Cc1ccccc1)C(=O)N[C@]1(C)CCCCCCC=CCCC[C@@](C)(C(=O)N[C@@H](CO)C(=O)N[C@@H](C)C(=O)N[C@@H](C)C(N)=O)NC(=O)[C@H](CC2CCC2)NC(=O)[C@H](CCC(N)=O)NC(=O)[C@H](CCC(=O)O)NC(=O)[C@H](Cc2c[nH]c3ccccc23)NC(=O)[C@H](Cc2ccc(O)cc2)NC(=O)[C@H](CCC(=O)O)NC1=O)[C@@H](C)O [MP-65496] (Ac-[Lys(N3)][βAla]ETF[R8]EYWEQ[Cba][S5]SAA-NH2; staple 6-13)	83.7 µM (≈ 171 µg/mL)	2.338%	> 50.6 µM	–	1.98	1.53 µM	> 49.8 µM	324 A^2	0.42 µM	–	–	–
CC(=O)N[C@@H](CCCCN=[N+]=[N-])C(=O)NCC(=O)N[C@@H](CO)C(=O)NCC(=O)N[C@H](C(=O)N[C@@H](CO)C(=O)N[C@@H](Cc1ccccc1)C(=O)N[C@]1(C)CCCCCCC=CCCC[C@@](C)(C(=O)N[C@@H](CCC(=O)O)C(N)=O)NC(=O)[C@H](CC(C)C)NC(=O)[C@H](CC(C)C)NC(=O)[C@H](C)NC(=O)[C@H](Cc2c[nH]c3ccccc23)NC(=O)[C@H](Cc2ccc(O)cc2)NC(=O)[C@H](CCC(=O)O)NC1=O)[C@@H](C)O [MP-010]	23 µM (≈ 44.8 µg/mL)	19.63%	> 50 µM	–	2.07	–	–	–	–	Poorly Behaved	–	–
CC(=O)N[C@@H](CCCNC(=N)N)C(=O)N[C@@H](CCCNC(=N)N)C(=O)NCCCCCC(=O)N[C@@H](CC(C)C)C(=O)N[C@H](C(=O)N[C@@H](Cc1ccccc1)C(=O)N[C@]1(C)CCCCCCC=CCCC[C@@](C)(C(=O)N[C@@H](CO)C(=O)N[C@@H](C)C(=O)N[C@@H](C)C(N)=O)NC(=O)[C@H](CC2CCC2)NC(=O)[C@H](CCC(N)=O)NC(=O)[C@H](C)NC(=O)[C@H](Cc2c[nH]c3ccccc23)NC(=O)[C@H](Cc2ccc(O)cc2)NC(=O)[C@H](CCC(=O)O)NC1=O)[C@@H](C)O [MP-003]	6 µM (≈ 13 µg/mL)	46.5%	31 µM	207 A^2	2.51	–	–	–	–	–	–	–
CC(C)C[C@H](NC(=O)[C@@H](N)CCCCN=[N+]=[N-])C(=O)N[C@H](C(=O)N[C@@H](Cc1ccccc1)C(=O)N[C@]1(C)CCCCCCC=CCCC[C@@](C)(C(=O)N[C@@H](CCC(=O)O)C(N)=O)NC(=O)[C@H](CC2CCC2)NC(=O)[C@H](CCC(N)=O)NC(=O)[C@H](C)NC(=O)[C@H](Cc2c[nH]c3ccccc23)NC(=O)[C@H](Cc2ccc(O)cc2)NC(=O)[C@H](CCC(=O)O)NC1=O)[C@@H](C)O [MP-4009] (H-[Lys(N3)]LTF[R8]EYWAQ[Cba][S5]E-NH2; staple 5-12)	–	-2.907%	> 50 µM	–	–	–	–	–	–	Poorly Behaved	Poorly Behaved	Poorly Behaved
CC(=O)N[C@@H](CCCCN=[N+]=[N-])C(=O)NCCC(=O)N[C@@H](CCC(N)=O)C(=O)N[C@H](C(=O)N[C@@H](Cc1ccccc1)C(=O)N[C@]1(C)CCCCCCC=CCCC[C@@](C)(C(=O)N[C@@H](CO)C(=O)N[C@@H](C)C(=O)N[C@@H](C)C(N)=O)NC(=O)[C@H](CC2CCC2)NC(=O)[C@H](CCC(N)=O)NC(=O)[C@H](CCC(N)=O)NC(=O)[C@H](Cc2c[nH]c3ccccc23)NC(=O)[C@H](Cc2ccc(O)cc2)NC(=O)[C@H](CCC(N)=O)NC1=O)[C@@H](C)O [MP-5498] (Ac-[Lys(N3)][βAla]QTF[R8]QYWQQ[Cba][S5]SAA-NH2; staple 6-13)	19.7 µM (≈ 40.2 µg/mL)	8.092%	> 50.6 µM	–	2.6	6.24 µM	38.3 µM	198 A^2	0.0494 µM	–	–	–
CC(=O)N[C@@H](CC(C)C)C(=O)N[C@H](C(=O)N[C@@H](Cc1ccccc1)C(=O)NC(C)(C)C(=O)N[C@@H](CCC(=O)O)C(=O)N[C@@H](Cc1ccc(O)cc1)C(=O)N[C@H](Cc1c[nH]c2ccccc12)C(=O)N[C@@H](CCC(N)=O)C(=O)N[C@@H](CC(C)C)C(=O)N[C@@H](CC1CCC1)C(=O)NC(C)(C)C(=O)N[C@@H](CO)C(=O)N[C@@H](C)C(=O)N[C@@H](C)C(N)=O)[C@@H](C)O [MP-256]	91.5 µM (≈ 152 µg/mL)	–	> 50 µM	185 A^2	2.18	–	–	–	–	–	–	–
CC(=O)N[C@@H](CCCCN=[N+]=[N-])C(=O)NCCC(=O)N[C@@H](CC(N)=O)C(=O)N[C@H](C(=O)N[C@@H](Cc1ccccc1)C(=O)N[C@]1(C)CCCCCCC=CCCC[C@@](C)(C(=O)N[C@@H](CO)C(=O)N[C@@H](C)C(=O)N[C@@H](C)C(N)=O)NC(=O)[C@H](CC2CCC2)NC(=O)[C@H](CCC(N)=O)NC(=O)[C@H](CC(N)=O)NC(=O)[C@H](Cc2c[nH]c3ccccc23)NC(=O)[C@H](Cc2ccc(O)cc2)NC(=O)[C@H](CC(N)=O)NC1=O)[C@@H](C)O [MP-497]	5 µM (≈ 10 µg/mL)	3.16%	> 50.6 µM	–	2.49	7.81 µM	> 49.8 µM	202 A^2	0.271 µM	–	–	–
CC(=O)N[C@@H](CC(C)C)C(=O)N[C@H](C(=O)N[C@@H](Cc1ccccc1)C(=O)NC(C)(C)C(=O)N[C@@H](CCC(=O)O)C(=O)N[C@@H](Cc1ccc(O)cc1)C(=O)N[C@H](Cc1c[nH]c2ccccc12)C(=O)N[C@@H](C)C(=O)N[C@@H](CCC(N)=O)C(=O)N[C@@H](CC1CCC1)C(=O)NC(C)(C)C(=O)N[C@@H](CO)C(=O)N[C@@H](C)C(=O)N[C@@H](C)C(N)=O)[C@@H](C)O [MP-254]	92.5 µM (≈ 150 µg/mL)	–	> 50 µM	188 A^2	2.08	–	–	–	–	–	–	–

Reference: article PMC10786919, “Design-rules for stapled peptides with in vivo activity and their application to Mdm2/X antagonists” (Nature Communications, 2024)
